In PubChem BioAssay (NCI):
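Values below derive from 48-hour exposures of cells grown in 96-well plates, with endpoints linearly interpolated between the two concentrations bracketing the appropriate inhibition level. At the GI50, growth is halved. TGI is the concentration that stops growth completely.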 Where a SMILES comes first, the peptide text is derived from it. [ ]: non-standard residue; d: D form. Phe(F5) = N[CH](Cc1c(F)c(F)c(F)c(F)c1F)C(=O)O

Key:
Experiment in all cases: inhibition of tumour cell growth, NCI panel, 48 h
[1] = test system: HCC-2998 colon
[2] = test system: RXF 393 renal
[3] = test system: DMS 273 small cell lung
[4] = test system: MDA-MB-231 breast
[5] = test system: SR leukemia
[6] = test system: MALME-3M melanoma
[7] = test system: KM20L2 colon
[8] = test system: SK-MEL-5 melanoma
[9] = test system: RPMI-8226 leukemia
[10] = test system: BT-549 breast

Row | Structure (SMILES) | GI50 [1] [µM] | TGI [1] [µM] | GI50 [2] [µM] | TGI [2] [µM] | TGI [3] [µM] | TGI [4] [µM] | GI50 [5] [µM] | TGI [5] [µM] | TGI [6] [µM] | TGI [7] [µM] | TGI [8] [µM] | GI50 [9] [µM] | TGI [9] [µM] | GI50 [10] [µM] | TGI [10] [µM] | GI50 [4] [µM] | GI50 [6] [µM] | GI50 [8] [µM]
1 | COC(=O)C(CC(C)C)NC(=O)C(Cc1cnc[nH]1)NC(=O)CNC(=O)C(NC(=O)C(C)NC(=O)C(Cc1c[nH]c2ccccc12)NC(=O)C(CCC(=O)O)NC(=O)C(N)Cc1c(F)c(F)c(F)c(F)c1F)C(C)C (centres undefined) (H-[Phe(F5)]EWAVGHL-OMe; configuration not given here) | > 100 | > 100 | > 100 | > 100 | > 100 | > 12.5 | > 100 | > 100 | > 12.5 | > 100 | > 12.5 | > 100 | > 100 | – | – | – | – | –
2 | N=C(N)c1nn(C2OC(CO)C(O)C2O)c2nc[nH]c(=O)c12 (centres undefined) | 0.849 | 3.37 | 0.696 | 4.89 | – | 0.778 | 0.34 | – | 0.612 | – | 1.53 | 0.352 | 2.5 | 0.33 | 2.67 | 0.248 | 0.206 | 0.444
3 | c1ccc2[nH]c(-c3ccc(N4CCN(c5ccc(-c6nc7ccccc7[nH]6)cc5)CC4)cc3)nc2c1 | > 100 | > 100 | > 100 | > 100 | – | > 100 | 3.08 | 6.85 | > 100 | – | > 100 | 40 | > 100 | > 100 | > 100 | > 100 | > 100 | > 100
4 | COc1ccc(C(=O)/C=C/c2ccc(Cl)cc2)cc1S(=O)(=O)Nc1c(N)nc(SC)[nH]c1=O | 1.92 | 3.53 | 1.6 | 3.26 | – | 10.5 | 3.57 | > 100 | 9.93 | – | 9.59 | 2.17 | 5.97 | 1.63 | 3.17 | 3.42 | 3.02 | 2.72
5 | O=C(O)CSSCC(=O)O | – | > 100 | – | > 100 | – | > 100 | – | > 100 | > 100 | – | > 100 | – | > 100 | – | > 100 | – | – | –
6 | COC(=O)CCC(=O)N1Cc2cc(C)ccc2N(C(=O)CCC(=O)OC)Cc2cc(C)ccc21 | – | – | – | > 100 | > 100 | – | – | > 100 | – | – | > 100 | – | > 100 | – | – | – | – | –
7 | C=C1C(=O)O[C@H]2C[C@@H](C)[C@@H]3CC(=O)OC[C@@]3(C)CC12 (some centres undefined) | – | 98.5 | – | – | > 100 | – | – | – | 35 | 52.2 | > 100 | – | 75.2 | – | – | – | – | –
8 | O=C1C/C(=C/c2ccc(/C=C3/CC(=O)N(c4cccc(Br)c4)C3=O)cc2)C(=O)N1c1cccc(Br)c1 | – | > 100 | – | 93.4 | > 100 | – | – | > 100 | > 100 | > 100 | > 100 | – | > 100 | – | – | – | – | –
9 | CN(C)CCNC(=O)c1cccn2c(=O)c3cc4ccccc4cc3nc12 | 0.241 | 1.06 | 0.0981 | 0.286 | – | 8.84 | 0.0457 | > 100 | 0.617 | – | 0.476 | 0.24 | – | 0.68 | 2.83 | 0.316 | 0.116 | 0.131
10 | CCCN1C(=O)/C(=c2\sc3n(c2=O)C2C(NN=3)N(CC)C(=O)N2CC)c2ccccc21 (centres undefined) | 1.56 | 19.6 | 0.277 | 3.23 | – | 12.4 | 0.422 | 21.9 | 25.1 | – | 3.15 | 0.427 | 6.48 | 1.66 | 13.2 | 1.41 | 0.612 | 0.369
11 | CCN(CC)CCOc1ccc(C(=C(C)c2ccc(Cl)cc2)c2ccc(OCCN(CC)CC)cc2)cc1 | 0.574 | 1.06 | 0.519 | 1.01 | – | 1.12 | 0.484 | 1.25 | 1.09 | – | 1.06 | 0.668 | 1.49 | 1.33 | 4.22 | 0.581 | 0.563 | 0.592
12 | CC1Oc2cc3c(-c4c(O)cc(O)c5c(O)c6c(cc45)OC(C)C(C)C6=O)c(O)cc(O)c3c(O)c2C(=O)C1C (centres undefined) | – | 1.63 | – | 0.207 | – | 0.378 | – | 0.429 | 1.13 | – | 0.461 | – | 0.469 | – | 0.775 | – | – | –
13 | NC(=O)[C@H]1CCN(c2ncnc(N)c2F)C[C@@H]1N1CCC[C@@H](Nc2cc(Cl)cc(C(F)(F)F)c2)C1=O | 14.6 | 36.3 | 6.01 | 25.5 | – | 32.6 | 28.1 | 83.8 | 42.8 | – | 30 | 16.8 | 56.3 | 21.4 | 51.1 | 14.3 | 19.1 | 16.3
14 | CN(C)c1ccc2c(NCCCCCCNc3ccnc4cc(N(C)C)ccc34)ccnc2c1 | – | 70.7 | – | 38.4 | 21.3 | – | – | > 100 | 12.9 | – | > 100 | – | – | – | – | – | – | –
15 | COC12C=CC(CC1)c1c(O)ccc(O)c12 (centres undefined) | – | > 100 | – | > 100 | > 87 | – | – | 36.3 | > 100 | > 100 | > 100 | – | > 100 | – | – | – | – | –
16 | COc1cc2c(cc1OC)-c1ccc3cc4c(cc3c1N(CCN1CCCC1)C2)OCO4 | 1.09 | 2.43 | 0.794 | 2.72 | – | 3.3 | 0.0696 | 1.23 | 14.2 | – | 3.09 | 0.224 | 0.723 | 1.6 | 9.01 | 1.27 | 2.05 | 1.48
17 | CCOC(=O)Cc1c[nH]c(=S)[nH]c1=O | > 100 | > 100 | > 100 | > 100 | – | > 100 | > 100 | > 100 | > 100 | – | > 100 | > 100 | > 100 | > 100 | > 100 | > 100 | > 100 | > 100
18 | Cc1ccc2c(c1)C1(C)OC(CC(N)C1O)O2 (centres undefined) | – | – | – | > 100 | > 100 | – | – | – | > 100 | – | > 100 | – | > 100 | – | – | – | – | –
19 | CC1CC2C(=O)NC(=O)C2c2[nH]c3ccccc3c21 (centres undefined) | – | – | – | – | > 100 | – | – | > 100 | > 100 | – | > 100 | – | > 100 | – | – | – | – | –
